Four compounds from US20250282746A1, “HALOGEN-SUBSTITUTED ISOINDOLINE COMPOUND AND USE THEREOF” (CHENGDU FENDI PHARMACEUTICAL CO., LTD., priority 2022, published 2025) can be followed below.

Data set [1] has as its system MV-4-11 cells. The data set is described as follows: Antiproliferative activity against MV-4-11 cells (CellTiter-Glo, 72 h). The class given is cell-based. The following applies: Homo sapiens, MV4-11; MV-4-11 cells, 72 h; read-out: Antiproliferative activity IC50. The procedure, abridged:
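MV-4-11 cells in RPMI + 10% FBS plated at 5,000 cells/well and pre-incubated 24 h at 37 °C, 5% CO2. Compounds were then added (final DMSO 0.2%) and cells incubated 72 h. Viability was read by CellTiter-Glo luminescence after 30 min equilibration at room temperature.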
(ATP-based viability assays read luminescence as a measure of living cells.)

In data set [2] the test system is NCI-H929 cells. Description: Antiproliferative activity against various tumor cells: NCI-H929. The class given is cell-based. Conditions: Homo sapiens; NCI-H929 cells, 72 h; read-out: Antiproliferative activity IC50 NCI-H929. Here is the method:
(§1) U937, NCI-H929, AML-2, and MOLM-13 cells in the logarithmic growth phase were diluted in media RPMI+10% FBS, RPMI+10% FBS, MEMα+20% FBS, RPMI+20% FBS, respectively, and plated at 4,000 cells/well in 96-well whole black plates (WHB) with 50 μL/well. After plating, the plates were incubated in an incubator at 5% CO2 and 37° C. for 24 h before the compounds were added. The compounds were prepared into a 10 mM stock solution in DMSO and diluted in a culture medium to the desired concentrations (a final DMSO concentration of 0.2%). […] The plates were incubated at 5% CO2 and 37° C. for 72 h. After the incubation was complete, the plates were equilibrated at room temperature for 30 min. CellTiter-Glo® Reagent (Promega G7573) was added at 100 μL/well. The plates were shaken for 12 min on a microplate shaker. The luminescence value was measured at room temperature by the GloMax navigator (Promega GM2010).

A further data set concerns U937 cells. Description: Antiproliferative activity against various tumor cells: U937. The class given is cell-based. The following applies: Homo sapiens, U-937; U937 cells, 72 h; read-out: Antiproliferative activity IC50 U937. Here is the method: as §1
The subject of data set [3] is MOLM-13 cells. The data set is described as follows: Antiproliferative activity against various tumor cells: MOLM-13. Conditions: Homo sapiens; MOLM-13 cells, 72 h; read-out: Antiproliferative activity IC50 MOLM-13. The class given is cell-based. How it is done: as §1
In the next data set the test system is AML-2 cells. Description: Antiproliferative activity against various tumor cells: AML-2. The class given is cell-based. The following applies: AML-2 cells, 72 h; read-out: Antiproliferative activity IC50 AML-2. How it is done: as §1
For data set [4], the system named is MV-4-11 cells. The data set is described as follows: Apoptotic effect on AML cells (annexin/PI flow cytometry). The class given is cell-based, human. Conditions: 1 μM and 100 nM. How it is done: MV-4-11 cells in the logarithmic growth phase were diluted in a growth medium and plated at 600,000 cells/well in 6-well plates with 2 mL/well and the compounds were added. The cells were collected, washed twice with pre-cooled PBS, and resuspended in 100 μL of 1× annexin-binding buffer. 5 μL of FITC and 1 μL of 100 µg/mL PI were added. The cells were incubated at room temperature in the dark for 15 min and transferred on ice, and 400 μL of 1× annexin-binding buffer was added. The mixture was gently mixed and subjected to flow cytometry.

The target in another data set is T1, GSPT1 protein (Homo sapiens, UniProt P15170).
T1 construct: The whole cell lysate was prepared using a RIPA lysis buffer; endogenous in cells; host or cells: NB-4 cells
T1 sequence (P15170 whole entry): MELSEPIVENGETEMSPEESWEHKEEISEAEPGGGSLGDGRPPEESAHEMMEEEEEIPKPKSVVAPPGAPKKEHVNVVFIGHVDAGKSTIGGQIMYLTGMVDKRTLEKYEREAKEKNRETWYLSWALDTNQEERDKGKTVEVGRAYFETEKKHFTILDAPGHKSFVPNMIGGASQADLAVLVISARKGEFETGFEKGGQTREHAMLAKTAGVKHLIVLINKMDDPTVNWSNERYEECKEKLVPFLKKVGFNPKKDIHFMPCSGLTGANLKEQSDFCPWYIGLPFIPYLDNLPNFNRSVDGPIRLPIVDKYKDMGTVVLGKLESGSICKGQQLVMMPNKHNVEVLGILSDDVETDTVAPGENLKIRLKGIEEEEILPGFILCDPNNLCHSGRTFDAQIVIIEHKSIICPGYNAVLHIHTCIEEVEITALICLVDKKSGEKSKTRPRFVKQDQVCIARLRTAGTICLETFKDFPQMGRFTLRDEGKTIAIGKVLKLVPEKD
Description: Degradation of GSPT1 protein in NB-4 cells (Western blot). The class given is cell-based. Conditions: NB-4 cells, compound 1 μM, 6 h; read-out: GSPT1 degradation. The method in brief: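 GSPT1 levels were read by Western blot (4-20% SDS-PAGE, PVDF, overnight primary antibody at 4 °C) on lysates of NB-4 cells.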
(Immunoblotting shows a protein as a band on a membrane.)

Another data set addresses T2, hERG potassium channel (Homo sapiens, UniProt Q12809).
T2 construct: expressed in transfected cells; host or cells: HEK293 cells
Description: hERG inhibition assay (automated patch clamp, HEK293). The following applies: 3 μM, HEK293 cells, QPatch. The class given is cell-based. The text has this: The rapidly activating potassium channel encoded by human ether-a-go-go-related gene (hERG) is an important ion channel involved in the formation of cardiac action potential phase 3 repolarization. Blocking of the hERG channel by drugs can lead to the prolongation of cardiac repolarization and thus a prolonged QT interval in the electrocardiogram, known as long QT syndrome. Drug-induced delayed ventricular repolarization may in some cases trigger fatal arrhythmia-torsade de pointes-type ventricular tachycardia.
This assay was used to measure the effect of compounds on the hERG potassium channel clones expressed in human embryonic kidney (HEK293) cells. The assay procedures are as follows: the cells were transferred into a HEPES-buffered saline in glass-lined 96-well plates and exposed to an appropriate amount of test compound or control solution at various concentrations for 3 min. The test compounds were diluted in 0.3% DMSO.

The test system of the next data set is MV-4-11-Luc xenograft. Description: Efficacy in acute myeloid leukemia MV-4-11-luc xenograft mouse model. Type of data set: in vivo. Conditions: for T/C (%) Day 3 / T/C (%) Day 7 / T/C (%) Day 10 / T/C (%) Day 14: 10 mg/kg orally twice daily, NSG mice. The text has this:
In an in vivo efficacy study, female immunocompromised NSG mice aged 6 to 8 weeks were used and the experimental procedures started after the animals were acclimatized in the experimental environment for 7 days. The animals were housed in SPF animal rooms in individually ventilated cages (IVCs) each containing 6 mice. Human acute myeloid leukemia MV-4-11 cells expressing luciferase (MV-4-11-luc) were grafted into mice by tail vein injection (5×10^6 cells/mouse). Seven days after the cell grafting, the mice were subjected to imaging on the IVIS Lumina III small animal imaging system for grouping and administration, and tumor-bearing mice were randomized to the vehicle control group or treatment groups (6 mice/group). The compound (10 mg/kg, twice daily) was administered to the animals in each treatment group by oral gavage. The body weight was measured daily, while mean luminescence was measured after the start of treatment with the compounds or vehicle.
Indicators: The indicators were to investigate whether the tumor growth was inhibited or delayed or the tumor was cured. The tumor size was measured twice weekly using the IVIS Lumina III small animal imaging system. The tumor signals were determined by exposure photons per second. The anti-tumor efficacy of the compounds was evaluated by the tumor proliferation rate T/C (%). T/C %=TRTV/CRTV×100% (TRTV: the RTV of the treatment group; CRTV: the RTV of negative control group; RTV=Vt/V0, where V0 is the tumor signal measured at the time of grouping and administration (i.e., day 0), and Vt is the tumor signal at every measurement). According to the guidelines of the Center for Drug Evaluation, NMPA, a T/C (%) of >40% denotes the absence of efficacy, while a T/C of <40% with P<0.05 denotes the presence of efficacy.

In data set [5] the test system is MOLM-13 cells. Description: Antiproliferative effect alone and in combination with azacitidine against MOLM-13 cells. Type of data set: cell-based. Conditions: MOLM-13 cells, 72 h. Here is the method: (§2) MOLM-13 cells in the logarithmic growth phase were diluted in a medium RPMI+[…], and NCI-H929 cells were diluted in a medium RPMI+10% FBS. The cells were plated at 4,000 cells/well in 96-well whole black plates (WHB) with 50 μL/well. After plating, the plates were incubated in an incubator at 5% CO2 and 37° C. for 24 h before the compounds were added. The compounds were prepared into a 10 mM stock solution in DMSO and diluted in a culture medium to the desired concentrations (a final DMSO concentration of 0.2%). 50 μL of the compound dilutions at final concentrations of 10,000, 3,333.33, 1,111.11, 370.37, 123.46, 41.15, 13.72, 4.57, 1.52, and 0 nM were added to the 96-well plates containing the cells, that is, each compound was serially diluted to 10 concentrations in duplicate. The plates were incubated at 5% CO2 and 37° C. for 72 h. When pharmaceutical partners were used, the concentrations of azacitidine and dexamethasone were kept at 200 nM and 500 nM respectively, and the compounds were serially three-fold diluted from 10,000 nM. After the incubation was complete, the plates were equilibrated at room temperature for 30 min. CellTiter-Glo® Reagent (Promega G7573) was added at 100 μL/well. The plates were shaken for 12 min on a microplate shaker. The luminescence value was measured at room temperature by the GloMax navigator (Promega GM2010). The IC50 values were calculated using the GraphPad Prism 7 software with the 0 nM control group as 0% inhibition.

Data set [6] has as its system NCI-H929 cells. Description: Antiproliferative effect alone and in combination with dexamethasone against NCI-H929 cells. Type of data set: cell-based. The following applies: 72 h, read-out: IC50. Here is the method:
as §2

pIC50: −log10 of the molar value. “Also recorded” adds a separate entry of the source.

T2 sequence (Q12809 whole entry): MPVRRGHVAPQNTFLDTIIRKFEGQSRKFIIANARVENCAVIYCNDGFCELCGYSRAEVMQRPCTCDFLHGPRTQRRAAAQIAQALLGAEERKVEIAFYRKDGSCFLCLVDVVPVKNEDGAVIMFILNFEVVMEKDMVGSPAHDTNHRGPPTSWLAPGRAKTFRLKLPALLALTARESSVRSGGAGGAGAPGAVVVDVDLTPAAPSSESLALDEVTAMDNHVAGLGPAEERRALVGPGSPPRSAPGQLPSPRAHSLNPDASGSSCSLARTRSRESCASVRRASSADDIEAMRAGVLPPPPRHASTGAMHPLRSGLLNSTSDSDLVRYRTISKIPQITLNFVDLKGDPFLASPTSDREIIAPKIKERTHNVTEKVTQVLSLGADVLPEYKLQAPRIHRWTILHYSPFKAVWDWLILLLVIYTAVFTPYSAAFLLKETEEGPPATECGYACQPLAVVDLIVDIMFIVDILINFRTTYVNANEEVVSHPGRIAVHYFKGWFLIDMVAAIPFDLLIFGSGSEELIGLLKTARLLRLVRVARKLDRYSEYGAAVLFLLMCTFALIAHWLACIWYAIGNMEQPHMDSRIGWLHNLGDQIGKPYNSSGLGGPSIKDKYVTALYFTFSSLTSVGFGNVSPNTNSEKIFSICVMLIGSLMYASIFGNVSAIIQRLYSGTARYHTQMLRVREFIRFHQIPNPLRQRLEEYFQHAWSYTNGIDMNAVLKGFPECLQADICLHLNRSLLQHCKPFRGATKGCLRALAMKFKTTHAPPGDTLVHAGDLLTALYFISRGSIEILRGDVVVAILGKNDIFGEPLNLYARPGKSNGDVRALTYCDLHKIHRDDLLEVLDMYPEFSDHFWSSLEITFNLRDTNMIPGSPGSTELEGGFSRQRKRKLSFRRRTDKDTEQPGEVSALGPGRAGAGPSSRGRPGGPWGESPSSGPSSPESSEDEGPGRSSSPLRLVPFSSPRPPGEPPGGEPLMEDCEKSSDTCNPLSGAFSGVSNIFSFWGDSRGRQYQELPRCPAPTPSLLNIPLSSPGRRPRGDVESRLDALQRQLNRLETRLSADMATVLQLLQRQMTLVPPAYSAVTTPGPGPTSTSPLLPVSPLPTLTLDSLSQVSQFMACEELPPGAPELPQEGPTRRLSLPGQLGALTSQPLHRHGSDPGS

Regarding `O=C1CCC(N2Cc3c(ccc(CNC(=O)c4cc5cc(F)ccc5o4)c3F)C2=O)C(=O)N1` (centres unmarked) [FDAB-46], the pIC50 (commonly −log10 of the IC50, conventionally taken in molar units) in the data set with MV-4-11 cells [1] is 8.00 to 9.00; with NCI-H929 cells [2], 8.00 to 9.00; with U937 cells, 7.00 to 8.00; in the data set on MOLM-13 cells [3], 6.00 to 7.00; with AML-2 cells it was 6.00 to 7.00. Also, the “apoptotic effect on MV-4-11 cells” value is recorded as “no apoptotic effect” in the data set with MV-4-11 cells [4] (treated for 7 h, 10 µM) and “apoptosis was induced” in the data set with MV-4-11 cells [4] (treated for 16 h). Moreover, the inhibition at 1 µM at GSPT1 protein was above 80%.

On to `Cc1ccc(C(=O)NCc2ccc3c(c2F)CN(C2CCC(=O)NC2=O)C3=O)cc1F` (centres unmarked) [FDAB-120], for which the pIC50 in the data set on MV-4-11 cells [1] is 7.00 to 8.00. Moreover, at GSPT1 protein, the inhibition at 1 µM was above 80%. Besides, the hERG inhibition rate at hERG potassium channel amounted to 13%. In the data set with MV-4-11-Luc xenograft, the “T/C (%) Day 3” value is listed as 6.69%, the “T/C (%) Day 7” value is listed as 1.58%, the “T/C (%) Day 10” value is 2.00% and the “T/C (%) Day 14” value came out at 2.12%.

Take `Cc1ccc(C(=O)NCc2ccc3c(c2F)CN(C2CCC(=O)NC2=O)C3=O)cc1` (centres unmarked) [FDAB-65]: the pIC50 was 7.00 to 8.00 in the data set with MV-4-11 cells [1]; 8.00 to 9.00 in the data set with NCI-H929 cells [2]; 7.00 to 8.00 in the data set on U937 cells; 6.00 to 7.00 in the data set on MOLM-13 cells [3]; 6.00 to 7.00 in the data set on AML-2 cells. Moreover, the “apoptotic effect on MV-4-11 cells” value with MV-4-11 cells [4] (treated for 7 h, 10 µM) is given as “no apoptotic effect”; in the data set on MV-4-11 cells [4] (treated for 16 h) it was “apoptosis was induced”. Moreover, on GSPT1 protein, the inhibition at 1 µM was above 80%. At hERG potassium channel, this compound showed a hERG inhibition rate of 11%. Besides, in the data set on MV-4-11-Luc xenograft, the “T/C (%) Day 3” value is 4.58%. Also, the “T/C (%) Day 7” value in the data set with MV-4-11-Luc xenograft is listed as 1.40%. In addition, the “T/C (%) Day 10” value in the data set with MV-4-11-Luc xenograft is given as 1.01%. Besides, in the data set on MV-4-11-Luc xenograft, the “T/C (%) Day 14” value is on record as 0.78%.

As to `O=C1CCC(N2Cc3cc(CNC(=O)C(F)(F)c4ccc(Cl)cc4)ccc3C2=O)C(=O)N1` (centres unmarked) [CC-90009, reference compound], the pIC50 is 5.85 in the data set with MOLM-13 cells [5] (compound alone), 7.36 with MOLM-13 cells [5] (in combination with 200 nM azacitidine), 5.50 with NCI-H929 cells [6] (compound alone) and 7.11 in the data set with NCI-H929 cells [6] (in combination with 500 nM dexamethasone). The compound further yielded a hERG inhibition rate at hERG potassium channel of 66%. Besides, the “T/C (%) Day 3” value in the data set with MV-4-11-Luc xenograft was 100.80%. Besides, the “T/C (%) Day 7” value with MV-4-11-Luc xenograft was found to be 133.08%. The “T/C (%) Day 10” value in the data set on MV-4-11-Luc xenograft is on record as 127.05%. In the data set on MV-4-11-Luc xenograft, the “T/C (%) Day 14” value worked out at 132.90%. In the data set with MV-4-11-Luc xenograft (oral administration, 10 mg/kg twice daily, within 14 days, 10 mg/kg), the “tumor inhibitory effect in mouse xenograft model” value is listed as “no tumor inhibitory effects; also recorded: no tumor inhibitory activity”.
